Reference: patent US9782399B2, “Pharmaceutical compositions which inhibit FKBP52-mediated regulation of androgen receptor function and methods of using same” (The United States of America, as represented by the …, priority 2009, dated 2017)

What was measured:
Assay type in all cases: cell-based
AR = target: T1, AR (Homo sapiens, UniProt P10275, T878A); experiment: AR nuclear translocation in LNCaP cells; conditions: about 30 μM pre-treatment 24 hours, R1881 0.1 nM 2 hours
T1 construct: endogenous in cells; host or cells: LNCaP
T1 sequence (P10275 1-920 T878A): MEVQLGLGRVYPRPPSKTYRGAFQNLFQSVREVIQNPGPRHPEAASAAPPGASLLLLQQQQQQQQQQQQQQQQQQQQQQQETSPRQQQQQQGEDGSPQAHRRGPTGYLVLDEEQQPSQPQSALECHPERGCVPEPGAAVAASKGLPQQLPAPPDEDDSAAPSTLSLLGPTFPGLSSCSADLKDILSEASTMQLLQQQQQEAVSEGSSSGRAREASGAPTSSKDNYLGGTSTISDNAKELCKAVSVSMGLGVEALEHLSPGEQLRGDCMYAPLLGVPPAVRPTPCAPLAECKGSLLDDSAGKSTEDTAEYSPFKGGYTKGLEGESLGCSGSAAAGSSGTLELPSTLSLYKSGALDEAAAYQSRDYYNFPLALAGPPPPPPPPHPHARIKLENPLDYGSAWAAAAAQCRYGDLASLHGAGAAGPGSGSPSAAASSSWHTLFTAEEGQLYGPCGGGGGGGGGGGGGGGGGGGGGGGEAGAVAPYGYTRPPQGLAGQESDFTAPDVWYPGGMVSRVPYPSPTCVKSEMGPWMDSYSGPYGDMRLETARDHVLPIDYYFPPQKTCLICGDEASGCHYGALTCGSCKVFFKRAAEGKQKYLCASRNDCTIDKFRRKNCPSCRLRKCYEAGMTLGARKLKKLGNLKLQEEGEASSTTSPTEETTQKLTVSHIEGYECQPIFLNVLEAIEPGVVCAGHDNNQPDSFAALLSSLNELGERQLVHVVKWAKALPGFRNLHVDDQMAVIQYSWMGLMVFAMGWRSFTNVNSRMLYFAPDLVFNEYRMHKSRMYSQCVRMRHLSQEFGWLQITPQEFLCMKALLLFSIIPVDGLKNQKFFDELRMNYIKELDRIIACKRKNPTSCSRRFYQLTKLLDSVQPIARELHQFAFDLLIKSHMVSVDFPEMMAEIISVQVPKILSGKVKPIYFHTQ
Procedure: LNCaP cells were maintained as above. At 50% confluence, cells were washed several times in serum-free RPMI-1640 medium, and re-cultured for 48 hours in RPMI-1640 medium containing 10% charcoal-stripped fetal bovine serum. At that time, compound 2 (termed 21D1C in FIG. 7) was added to a final concentration of about 30 μM. After an additional 24 hours, R1881 was added (0.1 nM) and cells were cultured for an additional 2 hours. At that time, cells were lysed and separated into nuclear and cytosolic fractions following published methods (Schreiber, et al., Nucleic Acids Res., 17:6419 (1989)). Quantification of AR in nucleus and cytosol was performed by Western blotting with an AR-specific antibody following polyacrylamide gel electrophoresis.

PSA mRNA = PSA mRNA quantitation in LNCaP cells (RT-PCR); conditions: 100 μM, 24 hours, R1881
Procedure: For PSA mRNA determination, cells were cultured and treated identically, except that lysis for mRNA extraction was performed 24 hours after addition of R1881. Total RNA was isolated using protocols and reagents contained in the Qiagen RNeasy Kit (Valencia, Calif.). TaqMan real-time quantitative RT-PCR analysis of PSA was performed using previously described techniques Hong J A, et al., Cancer Res., 65:7763-74 (2005); Guo F, et al., Cancer Res., 65:10536-44 (2005). The amount of PSA mRNA level and total protein in cells from the prostate cancer cell line LNCaP was measured after treatment with either control, or about 1 to 100 μM of each of the four compounds identified in the screen (Compounds 1-4). It was known that the expression of PSA mRNA in LNCaP cells is driven by an androgen receptor mediated pathway. The mRNA is quantified by a photodetection method over time. […] At 100 μM, mRNA expression was decreased to 40% of control levels.

PSA protein = PSA protein expression in LNCaP cells (Western blotting); conditions: 100 μM, about 48 hours, R1881 0.5 nM
Procedure: The amount of PSA protein expression levels was measured in cells from the prostate cancer cell line LNCaP, after treatment with either control, or about 1 to 100 μM of each of the four FTA compounds identified in the screen (Compounds 1-4). The protein was quantified by an immunohistochemical method using photodetection.
LNCaP cells were maintained in RPMI-1640 medium containing 10% fetal bovine serum. Forty eight hours prior to the experiment, cells were washed several times in serum-free medium and then cultured in RPMI-1640 medium containing 10% charcoal-stripped fetal bovine serum (to remove endogenous androgens). After 48 hours in this medium, Compound 2 was added in a range of concentrations (0, 3, 10, 30, and 100 μM) for 24 hours, at which time the synthetic androgen, methyltrienolone (R1881), (Sigma, St. Louis, Mo.) was added (0.5 nM). After an additional 48 hours, cells were lysed as described in Yano A., et al., Proc. Natl. Acad. Sci. USA, 105:15541-46 (2008), and PSA protein was monitored by polyacrylamide gel electrophoresis and Western blotting with an anti-PSA antibody (sc-80304, Santa Cruz Biotechnology).

## O=C(Nc1cccc(Cl)c1Cl)C1CCCCC1 [Compound 2]
AR
  ligand-dependent nuclear translocation of AR: significantly prevented
PSA mRNA
  PSA mRNA expression: 40 % of control levels
PSA protein
  PSA protein expression (printed as mRNA expression): 20 % of control levels
